Columns and labels:
wild oat [1] = test: Test Example 5: herbicidal effect by foliage application, plastic box (Table 20, symbol I); format: in vivo, wild oat (Avena fatua); settings: amount of applied herbicide 320 g/ha; foliage application after 14-day growth; evaluated three weeks after application
Outline: (§1)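 Plants were sown into sterilized diluvial soil under about 1.5 cm cover and kept in a greenhouse at 25° C. to 30° C. Fourteen days on, foliage received an even spray of the diluted emulsion. Herbicidal or crop effect was judged three weeks afterwards.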

Italian ryegrass [2] = test: Test Example 4: herbicidal effect by soil treatment (Table 19, symbol K); format: in vivo, Italian ryegrass (Lolium multiflorum); settings: amount of applied herbicide 320 g/ha
Outline: (§2)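 Pre-emergence style soil spray: seeds under ~1.5 cm sterilized diluvial soil received a uniform coat of emulsion diluted to the predetermined herbicide amount. Greenhouse 25–30° C; readout at week three on previously defined criteria.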

wild oat [3] = test: Test Example 4: herbicidal effect by soil treatment (Table 19, symbol I); format: in vivo, wild oat (Avena fatua); settings: amount of applied herbicide 320 g/ha
Outline: as §2

green foxtail [4] = test: Test Example 5: herbicidal effect by foliage application, plastic box (Table 20, symbol G); format: in vivo, green foxtail (Setaria viridis); settings: amount of applied herbicide 320 g/ha; foliage application after 14-day growth; evaluated three weeks after application
Outline: as §1

Italian ryegrass [5] = test: Test Example 5: herbicidal effect by foliage application, plastic box (Table 20, symbol K); format: in vivo, Italian ryegrass (Lolium multiflorum); settings: amount of applied herbicide 320 g/ha; foliage application after 14-day growth; evaluated three weeks after application
Outline: as §1

persian speedwell [6] = test: Test Example 4: herbicidal effect by soil treatment (Table 19, symbol R); format: in vivo, Persian speedwell (Veronica persica); settings: amount of applied herbicide 320 g/ha
Outline: as §2

windgrass [7] = test: Test Example 5: herbicidal effect by foliage application, plastic box (Table 20, symbol L); format: in vivo, windgrass (Apera spica-venti); settings: amount of applied herbicide 320 g/ha; foliage application after 14-day growth; evaluated three weeks after application
Outline: as §1

barnyard grass [8] = test: Test Example 3: herbicidal effect by foliage application, Wagner pot (Table 18, symbol H); format: in vivo, barnyard grass (Echinochloa crus-galli); settings: 320 g/ha
Outline: (§3)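 Plants were sown in alluvial soil held under 0.1–0.5 cm standing water and grown 14 days in a greenhouse at 25–30 °C. An emulsifiable formulation, water-diluted to the set dose, was then sprayed onto the foliage, and effects were scored three weeks later using previously defined criteria.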

blackgrass [9] = test: Test Example 4: herbicidal effect by soil treatment (Table 19, symbol J); format: in vivo, blackgrass (Alopecurus myosuroides); settings: amount of applied herbicide 320 g/ha
Outline: as §2

barnyard grass [10] = test: Test Example 5: herbicidal effect by foliage application, plastic box (Table 20, symbol H); format: in vivo, barnyard grass (Echinochloa crus-galli); settings: amount of applied herbicide 320 g/ha; foliage application after 14-day growth; evaluated three weeks after application
Outline: as §1

southern crabgrass [11] = test: Test Example 5: herbicidal effect by foliage application, plastic box (Table 20, symbol F); format: in vivo, southern crabgrass (Digitaria ciliaris); settings: amount of applied herbicide 320 g/ha; foliage application after 14-day growth; evaluated three weeks after application
Outline: as §1

lambsquarters [12] = test: Test Example 4: herbicidal effect by soil treatment (Table 19, symbol O); format: in vivo, lambsquarters (Chenopodium album); settings: amount of applied herbicide 320 g/ha
Outline: as §2

barnyard grass [13] = test: Test Example 4: herbicidal effect by soil treatment (Table 19, symbol H); format: in vivo, barnyard grass (Echinochloa crus-galli); settings: amount of applied herbicide 320 g/ha
Outline: as §2

lambsquarters [14] = test: Test Example 5: herbicidal effect by foliage application, plastic box (Table 20, symbol O); format: in vivo, lambsquarters (Chenopodium album); settings: amount of applied herbicide 320 g/ha; foliage application after 14-day growth; evaluated three weeks after application
Outline: as §1

late watergrass = test: Test Example 1: herbicidal activity, application before weed generation under submerged conditions (Table 16, symbol A); format: in vivo, late watergrass (Echinochloa oryzicola); settings: amount of applied herbicide 320 g/ha
Outline: (§4)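 Submerged Wagner pots (alluvial soil, 4 cm water) sown with weed seeds and planted with 2.5-leaf rice seedlings; emulsifiable concentrate diluted in water applied to water surface on sowing day. Held in greenhouse at 25-30 °C; injury scored 0-5 by herbicidal rate after three weeks.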

Japanese bulrush = test: Test Example 1: herbicidal activity, application before weed generation under submerged conditions (Table 16, symbol B); format: in vivo, Japanese bulrush (Schoenoplectus juncoides); settings: amount of applied herbicide 320 g/ha
Outline: as §4

blackgrass [15] = test: Test Example 5: herbicidal effect by foliage application, plastic box (Table 20, symbol J); format: in vivo, blackgrass (Alopecurus myosuroides); settings: amount of applied herbicide 320 g/ha; foliage application after 14-day growth; evaluated three weeks after application
Outline: as §1

chickweed [16] = test: Test Example 4: herbicidal effect by soil treatment (Table 19, symbol P); format: in vivo, common chickweed (Stellaria media); settings: amount of applied herbicide 320 g/ha
Outline: as §2

green foxtail [17] = test: Test Example 4: herbicidal effect by soil treatment (Table 19, symbol G); format: in vivo, green foxtail (Setaria viridis); settings: amount of applied herbicide 320 g/ha
Outline: as §2

velvetleaf [18] = test: Test Example 4: herbicidal effect by soil treatment (Table 19, symbol M); format: in vivo, velvetleaf (Abutilon theophrasti); settings: amount of applied herbicide 320 g/ha
Outline: as §2

rice flat sedge = test: Test Example 3: herbicidal effect by foliage application, Wagner pot (Table 18, symbol E); format: in vivo, rice flat sedge (Cyperus iria); settings: 320 g/ha
Outline: as §3

southern crabgrass [19] = test: Test Example 4: herbicidal effect by soil treatment (Table 19, symbol F); format: in vivo, southern crabgrass (Digitaria ciliaris); settings: amount of applied herbicide 320 g/ha
Outline: as §2

oval-leafed pondweed = test: Test Example 1: herbicidal activity, application before weed generation under submerged conditions (Table 16, symbol C); format: in vivo, oval-leafed pondweed (Monochoria vaginalis); settings: amount of applied herbicide 320 g/ha
Outline: as §4

redroot pigweed [20] = test: Test Example 5: herbicidal effect by foliage application, plastic box (Table 20, symbol N); format: in vivo, redroot pigweed (Amaranthus retroflexus); settings: amount of applied herbicide 320 g/ha; foliage application after 14-day growth; evaluated three weeks after application
Outline: as §1

redroot pigweed [21] = test: Test Example 4: herbicidal effect by soil treatment (Table 19, symbol N); format: in vivo, redroot pigweed (Amaranthus retroflexus); settings: amount of applied herbicide 320 g/ha
Outline: as §2

Chinese sprangletop = test: Test Example 3: herbicidal effect by foliage application, Wagner pot (Table 18, symbol D); format: in vivo, chinese sprangletop (Leptochloa chinensis); settings: 320 g/ha
Outline: as §3

chickweed [22] = test: Test Example 5: herbicidal effect by foliage application, plastic box (Table 20, symbol P); format: in vivo, common chickweed (Stellaria media); settings: amount of applied herbicide 320 g/ha; foliage application after 14-day growth; evaluated three weeks after application
Outline: as §1

windgrass [23] = test: Test Example 4: herbicidal effect by soil treatment (Table 19, symbol L); format: in vivo, windgrass (Apera spica-venti); settings: amount of applied herbicide 320 g/ha
Outline: as §2

persian speedwell [24] = test: Test Example 5: herbicidal effect by foliage application, plastic box (Table 20, symbol R); format: in vivo, Persian speedwell (Veronica persica); settings: amount of applied herbicide 320 g/ha; foliage application after 14-day growth; evaluated three weeks after application
Outline: as §1

velvetleaf [25] = test: Test Example 5: herbicidal effect by foliage application, plastic box (Table 20, symbol M); format: in vivo, velvetleaf (Abutilon theophrasti); settings: amount of applied herbicide 320 g/ha; foliage application after 14-day growth; evaluated three weeks after application
Outline: as §1

Row | Compound | Herbicidal effect by foliage application, I: wild oat (wild oat [1]) | Herbicidal effect by foliage application, G: green foxtail (green foxtail [4]) | Herbicidal effect by foliage application, K: Italian ryegrass (Italian ryegrass [5]) | Herbicidal effect by foliage application, L: windgrass (windgrass [7]) | herbicidal effect on barnyard grass (H) (barnyard grass [8]) | Herbicidal effect by foliage application, H: barnyard grass (barnyard grass [10]) | Herbicidal effect by foliage application, F: southern crabgrass (southern crabgrass [11]) | Herbicidal effect by foliage application, O: lambsquarters (lambsquarters [14]) | Herbicidal effect, A: late watergrass (late watergrass) | Herbicidal effect, B: Japanese bulrush (Japanese bulrush) | Herbicidal effect by foliage application, J: blackgrass (blackgrass [15]) | herbicidal effect on rice flat sedge (E) (rice flat sedge) | Herbicidal effect, C: oval-leafed pondweed (oval-leafed pondweed) | Herbicidal effect by foliage application, N: redroot pigweed (redroot pigweed [20]) | herbicidal effect on Chinese sprangletop (D) (Chinese sprangletop) | Herbicidal effect by foliage application, P: chickweed (chickweed [22]) | Herbicidal effect by foliage application, R: persian speedwell (persian speedwell [24]) | Herbicidal effect by foliage application, M: velvetleaf (velvetleaf [25]) | further results
1 | CCOc1cccc(-c2sc3c(C)cccc3c2-c2c(O)c(C)nn(C)c2=O)c1 [4-114] | 0 (Herbicidal rate of 5% or less (almost no effect)) | 4 (Herbicidal rate of 70% or more and less than 90%) | 5 (Herbicidal rate of 90% or more (almost completely withered)) | 1 (Herbicidal rate of 5% or more and less than 20%) | 4 (Herbicidal rate of 70% or more and less than 90%) | 0 (Herbicidal rate of 5% or less (almost no effect)) | 4 (Herbicidal rate of 70% or more and less than 90%) | 3 (Herbicidal rate of 40% or more and less than 70%) | 3 (Herbicidal rate of 40% or more and less than 70%) | 0 (Herbicidal rate of 5% or less (almost no effect)) | 1 (Herbicidal rate of 5% or more and less than 20%) | 4 (Herbicidal rate of 70% or more and less than 90%) | 0 (Herbicidal rate of 5% or less (almost no effect)) | 4 (Herbicidal rate of 70% or more and less than 90%) | 3 (Herbicidal rate of 40% or more and less than 70%) | 5 (Herbicidal rate of 90% or more (almost completely withered)) | 5 (Herbicidal rate of 90% or more (almost completely withered)) | 1 (Herbicidal rate of 5% or more and less than 20%) | Herbicidal effect by soil treatment, K: Italian ryegrass (Italian ryegrass [2]): 4 (Herbicidal rate of 70% or more and less than 90%); Herbicidal effect by soil treatment, I: wild oat (wild oat [3]): 0 (Herbicidal rate of 5% or less (almost no effect)); Herbicidal effect by soil treatment, R: persian speedwell (persian speedwell [6]): 4 (Herbicidal rate of 70% or more and less than 90%); Herbicidal effect by soil treatment, J: blackgrass (blackgrass [9]): 0 (Herbicidal rate of 5% or less (almost no effect)); Herbicidal effect by soil treatment, O: lambsquarters (lambsquarters [12]): 4 (Herbicidal rate of 70% or more and less than 90%); Herbicidal effect by soil treatment, H: barnyard grass (barnyard grass [13]): 1 (Herbicidal rate of 5% or more and less than 20%); Herbicidal effect by soil treatment, P: chickweed (chickweed [16]): 3 (Herbicidal rate of 40% or more and less than 70%); Herbicidal effect by soil treatment, G: green foxtail (green foxtail [17]): 4 (Herbicidal rate of 70% or more and less than 90%); Herbicidal effect by soil treatment, M: velvetleaf (velvetleaf [18]): 0 (Herbicidal rate of 5% or less (almost no effect)); Herbicidal effect by soil treatment, F: southern crabgrass (southern crabgrass [19]): 4 (Herbicidal rate of 70% or more and less than 90%); Herbicidal effect by soil treatment, N: redroot pigweed (redroot pigweed [21]): 3 (Herbicidal rate of 40% or more and less than 70%); Herbicidal effect by soil treatment, L: windgrass (windgrass [23]): 0 (Herbicidal rate of 5% or less (almost no effect))
2 | COCc1ccc(-c2sc3cc(F)c(F)cc3c2-c2c(O)c(C)nn(C)c2=O)cc1 [5-009] | 0 (Herbicidal rate of 5% or less (almost no effect)) | 3 (Herbicidal rate of 40% or more and less than 70%) | 3 (Herbicidal rate of 40% or more and less than 70%) | 0 (Herbicidal rate of 5% or less (almost no effect)) | 4 (Herbicidal rate of 70% or more and less than 90%) | 3 (Herbicidal rate of 40% or more and less than 70%) | 2 (Herbicidal rate of 20% or more and less than 40%) | 3 (Herbicidal rate of 40% or more and less than 70%) | 2 (Herbicidal rate of 20% or more and less than 40%) | 0 (Herbicidal rate of 5% or less (almost no effect)) | 0 (Herbicidal rate of 5% or less (almost no effect)) | 3 (Herbicidal rate of 40% or more and less than 70%) | 0 (Herbicidal rate of 5% or less (almost no effect)) | 5 (Herbicidal rate of 90% or more (almost completely withered)) | 3 (Herbicidal rate of 40% or more and less than 70%) | 5 (Herbicidal rate of 90% or more (almost completely withered)) | 5 (Herbicidal rate of 90% or more (almost completely withered)) | 4 (Herbicidal rate of 70% or more and less than 90%) | K: Italian ryegrass, herbicidal effect grade (Italian ryegrass [2]): 0 (Herbicidal rate of 5% or less (almost no effect)); I: wild oat, herbicidal effect grade (wild oat [3]): 0 (Herbicidal rate of 5% or less (almost no effect)); R: persian speedwell, herbicidal effect grade (persian speedwell [6]): 5 (Herbicidal rate of 90% or more (almost completely withered)); J: blackgrass, herbicidal effect grade (blackgrass [9]): 0 (Herbicidal rate of 5% or less (almost no effect)); O: lambsquarters, herbicidal effect grade (lambsquarters [12]): 4 (Herbicidal rate of 70% or more and less than 90%); H: barnyard grass, herbicidal effect grade (barnyard grass [13]): 0 (Herbicidal rate of 5% or less (almost no effect)); P: chickweed, herbicidal effect grade (chickweed [16]): 5 (Herbicidal rate of 90% or more (almost completely withered)); G: green foxtail, herbicidal effect grade (green foxtail [17]): 2 (Herbicidal rate of 20% or more and less than 40%); M: velvetleaf, herbicidal effect grade (velvetleaf [18]): 2 (Herbicidal rate of 20% or more and less than 40%); F: southern crabgrass, herbicidal effect grade (southern crabgrass [19]): 0 (Herbicidal rate of 5% or less (almost no effect)); N: redroot pigweed, herbicidal effect grade (redroot pigweed [21]): 4 (Herbicidal rate of 70% or more and less than 90%); L: windgrass, herbicidal effect grade (windgrass [23]): 0 (Herbicidal rate of 5% or less (almost no effect))

Reference: US20230085307A1, “PYRIDAZINONE COMPOUND AND HERBICIDE” (NISSAN CHEMICAL CORPORATION, priority 2019, published 2023)
